Series [1] can be described thus: Absorption test at upper and lower portions of the digestive tract (Test Example 8). In kind it is in vivo. The settings on record: rats; for AUC: read-out: AUCO-2 hr. The procedure:
(§1) Preparations of Examples 1, 2, 4 and 5 and Comparative Example 1 were directly administered in a large intestine loop of female rats (3 or 4 rats per group) in the amount of 100 mg/kg calculated on the basis of cilostazol (CLZ). Then, blood was collected with a lapse of time and cilostazol concentration in blood was measured. An average cilostazol concentration in blood is shown in Table 10 and pharmacokinetic parameters after administration are shown in Table 11.
Absorption Test of Slightly Soluble Drug at Upper and Lower Portions of the Digestive Tract.
In the same manner as in Test Example 1, preparations of Example 2 and Comparative Examples 1 and 5 were directly administered in the duodenum and the large intestine of rats. Then, blood was collected with a lapse of time and cilostazol concentration in blood was measured.

The nature of series [2]: Absorption test of cilostazol into the large intestine (Test Example 1). Type of series: in vivo, rats. The procedure:
Absorption Test of Cilostazol into the Large Intestine
as §1

Series [3] is described as follows: Cilostazol dissolution test, Paddle method, 0.3% SLS (Test Example 2). Type of series: physicochemical. The protocol:
Preparations of Examples 1, 2 and 4 and Comparative Example 1 were weighed in the amount of 100 mg calculated on the basis of cilostazol and subjected to a dissolution test under the following conditions. To evaluate the dissolution rate, the dissolution percentage was compared after two minutes had passed since the beginning of the test.
Conditions of Dissolution Test
Dissolution test solution: 900 mL of aqueous 0.3% sodium lauryl sulfate solution
Amount of sample: amount corresponding to 100 mg of cilostazol per vessel

[4] abbreviates: directly administered in the duodenum.
Setting [5] is: rat, blood, female rats, large intestine loop, 100 mg/kg as CLZ.

One may read the Cmax as the peak of the concentration-time curve. The Tmax is the time from dosing to the highest level.

Read-outs that look alike come from different tables or passages of the source.

As for `O=C1CCc2cc(OCCCCc3nnnn3C3CCCCC3)ccc2N1` [Comp. Example 5, cilostazol], in series [1] (female, rat, blood, 100 mg/kg, directly administered in the large intestine), the AUC is 236 ng·h/mL. The peak concentration (Cmax) in series [1] (female, rat, blood, 100 mg/kg, directly administered in the large intestine, read-out: Cmax) worked out at 168 ng/mL. In series [1] (setting [4]), the AUCO-2 hr was 3682 ng·h/mL and the Cmax came to 3002 ng/mL.

In series [2] (rat, blood, other: directly administered in a large intestine loop, female rats, direct administration in large intestine loop, 100 mg/kg as CLZ, time after administration 0 hr), `O=C1CCc2cc(OCCCCc3nnnn3C3CCCCC3)ccc2N1` [Comp. Example 1, cilostazol] showed a concentration at 0 hr of 0 ng/mL. In series [2] (rat, blood, other: directly administered in a large intestine loop, female rats, large intestine loop, 100 mg/kg as CLZ, 0.083 hr after administration), the concentration at 0.083 hr was found to be 15 ng/mL. In series [2] (rat, blood, other: directly administered in a large intestine loop, female rats, large intestine loop, 100 mg/kg as CLZ, 0.25 hr after administration), this compound showed a concentration at 0.25 hr of 26 ng/mL. In addition, the concentration at 0.5 hr in series [2] (rat, blood, other: directly administered in a large intestine loop, female rats, large intestine loop, 100 mg/kg as CLZ, 0.5 hr after administration) stood at 51 ng/mL. The compound further returned a concentration at 1 hr in series [2] (rat, blood, other: directly administered in a large intestine loop, female rats, large intestine loop, 100 mg/kg as CLZ, 1.0 hr after administration) of 100 ng/mL. In series [2] (rat, blood, other: directly administered in a large intestine loop, female rats, large intestine loop, 100 mg/kg as CLZ, 2.0 hr after administration), this compound displayed a concentration at 2 hr of 170 ng/mL. Further, in series [2] (setting [5]), the highest concentration (Cmax) is 170 ng/mL and the time to peak (Tmax) worked out at 2 h. Besides, the AUC(0-t) in series [2] (rat, blood, female rats, large intestine loop, 100 mg/kg as CLZ, read-out: AUC0–2 hr) is 186 ng·h/mL. The “blood concentration attained (in words)” value in series [2] (rats, large intestine, within two hours after administration) is “sufficient blood concentration was not obtained”. Also, the “dissolution rate / dissolution percentage (in words)” value in series [3] (0.3% SLS, Paddle 75 rpm) is reported as “low dissolution rate”. Further, the “Dissolution percentage after 2 minutes” value in series [3] (900 mL aqueous 0.3% sodium lauryl sulfate, Paddle method 75 rpm, 100 mg cilostazol per vessel) was 22.7%. Besides, in series [1] (female, rat, blood, 100 mg/kg, directly administered in the duodenum), the AUC was found to be 2590 ng·h/mL. The Cmax in series [1] (female, rat, blood, 100 mg/kg, directly administered in the duodenum, read-out: Cmax) came out at 1900 ng/mL. In series [1] (directly administered in the large intestine), this compound gave an AUCO-2 hr of 186 ng·h/mL.

These data come from patent publication US7144585B1, “Cilostazol preparation” (Otsuka Pharmaceutical Co., Ltd., priority 1999, dated 2006).
